Paper PMC9219006 (Plant Direct, 2022)
Read-outs that look alike come from different tables or passages of the source.

Test system: ASAT1H (SqASAT1H; c39979_g2_i1)
Experiment: LC-MS/MS product formation, Michaelis-Menten fit
Type: biochemical, Solanum quitoense
Conditions: read-out: apparent Km, 30 °C, pH 6 (default), 20 min

Row | SMILES | Km (myo-inositol saturating) [µM] | Km (nC10-CoA saturating) [µM]
1 | CCCCCCCCCCCC(=O)SCCNC(=O)CCNC(=O)[C@H](O)C(C)(C)COP(=O)(O)OP(=O)(O)OC[C@H]1O[C@@H](n2cnc3c(N)ncnc32)[C@H](O)[C@@H]1OP(=O)(O)O [nC12-CoA] | 16.6 ± 6.6 | –
2 | O[C@H]1[C@H](O)[C@@H](O)[C@H](O)[C@@H](O)[C@H]1O [myo-inositol] | – | 4400 ± 1100
3 | CCCCCCCCCC(=O)SCCNC(=O)CCNC(=O)[C@H](O)C(C)(C)COP(=O)(O)OP(=O)(O)OC[C@H]1O[C@@H](n2cnc3c(N)ncnc32)[C@H](O)[C@@H]1OP(=O)(O)O [nC10-CoA] | 9.5 ± 2.4 | –
